A short description of series [1]: Cure of MS-kit with 4-dodecylbenzenesulfonic acid (comparative example 1a-b). It counts as physicochemical. On the procedure:
(§1) All ingredients except the Tegokat are added to a Hauschild cup and mixed in a Hauschild mixer for 60 seconds. Than the catalyst is added and mixed for another 30 seconds. Additionally UV- and light stabilizers, pigments etc. may be added in the first or second step.

How the values of series [2] were obtained: as §1
In fig.6 the degradation time in hours at 150°C is plotted versus the time in days prior to cure at 40°C. On the horizontal axis the time the sealant was stored at 40°C before cure in days is given, showing the storage stability of the anti-oxidant, and on the vertical axis the time in hours to degradation at 150°C, showing the effectiveness of the anti-oxidant after storage of the sealant. This test may be seen as a stress test for both storage stability of the sealant as subsequent oxidation stability. The line represents the present situation using Irganox 1135 commonly applied in the sealant.
In fig. 8 a similar test as in fig. 6 is performed with the above mentioned anti-oxidants.
At present samples have been tested of a commercial STP (or SMP) sealant containing Irganox 1035, Irganox 1330 and a mixture thereof. The total antioxidant content of all samples is 4 g/kg STP polymer. The samples are stored in an oven at 40°C. The degradation times are determined at 150°C as a function of storage time. Furthermore, tensile tests are performed directly and after dumbbells used in said tests are exposed to 100°C for 1000 hours. This is done on freshly prepared sealants and sealants that have been stored at 40°C for 4 weeks.

A short description of series [3]: Oxidation resistance of MS-kit with dodecylsulfide (comparative example 2a-d). It counts as physicochemical. The conditions noted are these: up to 5% added to a standard mix with and without Irganox 1135, compared to standard mixture without dodecylsulfide. The protocol:
Up to 5% dodecylsulfide was added to a standard mix with and without Irganox 1135. No change in oxidation resistance was found compared to the standard mixture with or without Irganox 1135 not containing dodecylsulfide.

On to `CCCCCCCCCCCCc1ccc(S(=O)(=O)O)cc1` [4-dodecylbenzenesulfonic acid], for which the figures for the cure entry in series [1] (added instead of a tin-catalyst) and in series [1] (after addition of a tin catalyst) were “no cure was observed” and “behaved as without 4-dodecylbenzenesulfonic acid”, respectively.

With `CC(C)(C)c1cc(CCC(=O)OCC(COC(=O)CCc2cc(C(C)(C)C)c(O)c(C(C)(C)C)c2)(COC(=O)CCc2cc(C(C)(C)C)c(O)c(C(C)(C)C)c2)COC(=O)CCc2cc(C(C)(C)C)c(O)c(C(C)(C)C)c2)cc(C(C)(C)C)c1O` [Irganox 1010], in series [2], the “Degradation time after 7 days @ 40°C” value is 3 h, the “Initial degradation Time” value stood at 24 h and the “Relative decrease degradation time after 7days @ 40°C” value (“Relative decrease degradation time” below) came out at 13%.

With `CCCCCCCCCCCCSCCCCCCCCCCCC` [dodecylsulfide], the oxidation resistance entry in series [3] is recorded as “No change”.

`CC(C)(C)c1cc(CCC(=O)OCCSCCOC(=O)CCc2cc(C(C)(C)C)c(O)c(C(C)(C)C)c2)cc(C(C)(C)C)c1O` [Irganox 1035]: in series [2], the “Degradation time after 7 days @ 40°C” value came out at 2 h, the “Initial degradation Time” value stood at 16 h and the “Relative decrease degradation time” value came to 13%.

`Cc1c(Cc2cc(C(C)(C)C)c(O)c(C(C)(C)C)c2)c(C)c(Cc2cc(C(C)(C)C)c(O)c(C(C)(C)C)c2)c(C)c1Cc1cc(C(C)(C)C)c(O)c(C(C)(C)C)c1` [Irganox 1330]: in series [2], the “Degradation time after 7 days @ 40°C” value is 21 h, the “Initial degradation Time” value is 34 h and the “Relative decrease degradation time” value is reported as 62%.

As for `CCCCCCCCSc1nc(Nc2cc(C(C)(C)C)c(O)c(C(C)(C)C)c2)nc(SCCCCCCCC)n1` [Irganox 565], in series [2], the “Degradation time after 7 days @ 40°C” value amounted to 9 h, the “Initial degradation Time” value was 16 h and the “Relative decrease degradation time” value worked out at 56%.

For `Cc1cc(CCC(=O)OCCOCCOCCOC(=O)CCc2cc(C)c(O)c(C(C)(C)C)c2)cc(C(C)(C)C)c1O` [Irganox 245], in series [2], the “Degradation time after 7 days @ 40°C” value stood at 2 h, the “Initial degradation Time” value stood at 9 h and the “Relative decrease degradation time” value is listed as 22%.

Values taken from patent publication EP3353259B1, “SILYL MODIFIED POLYMER SEALANT” (Strongbond B.V., priority 2015, dated 2017).
